System: HCV replicon
Assay: HCV replicon replication assay (NPT ELISA) in Huh-7 replicon-containing cells
Format: cell-based, Hepatitis C virus
Details: inhibition of HCV replicon replication, Huh-7 HCV replicon-containing cells, three days
Description: Compounds claimed herein are tested for the ability to inhibit viral replication of the Hepatitis C replicon in cultured cells in which the HCV replicon construct has been incorporated. The HCV replicon system was described by Bartenschlager, et. al (Science, 285, pp. 110-113 (1999)). The replicon system is predictive of in vivo anti-HCV activity; compounds that are active in humans uniformly evidence activity in the replicon assay.
In this assay HCV replicon containing cells are treated with different concentrations of the test compound to ascertain the ability of the test compound to suppress replication of the HCV replicon. As a positive control, HCV replicon-containing cells are treated with different concentrations of interferon alpha, a known inhibitor of HCV replication. The replicon assay system includes Neomycin Phosphotransferase (NPT) as a component of the replicon itself in order to detect the transcription of replicon gene products in the host cell. Cells in which the HCV replicon is actively replicating have high levels of NPT; the level of NPT is proportional to HCV replication. […] The NPT level of each sample is measured using a captured ELISA.
The HCV replicon contains, 5′-3′, the HCV-IRES, the neomycin phosphotransferase (neo) gene, the IRES of encephalomyocarditis virus, which directs translation of HCV sequences NS3 to NS5B, and the 3′-NTR. The sequence of the HCV replicon has been deposited in GenBank (Accession no. AJ242652).
The replicon is transfected into Huh-7 cells using standard methods such as electroporation.
HCV replicon-containing cells are rinsed with once PBS once; 2 mls of trypsin are then added. Cells are incubated at 37° C. in a 5% CO2 incubator for 3-5 minutes. 10 mls of complete medium is added to stop the reaction. Cells are blown gently, put into a 15 ml tube, and spun at 1200 rpm for four minutes. The trypsin/medium solution is removed and 5 mls of medium (500 ml DMEM (high glucose)) from BRL catalog #12430-054; 50 mls 10% FBS, 5% Geneticin G418 (50 mg/ml, BRL catalog #10131-035), 5 ml MEM non-essential amino acids (100×BRL #11140-050) and 5 ml pen-strep (BRL #15140-148) is added. The cells and media are mixed carefully
Cells are plated with screening medium (500 ml DMEM (BRL #21063-029), 50 ml FBS (BRL #10082-147) and 5 ml MEM non-essential amino acid (BRL #11140-050) at 6000-7500 cells/100 μl/well of 96 well plate (6-7.5×10^5 cells/10 ml/plate). Plates are placed into 37° C. 5% CO2 incubator overnight. 6D. Assay
The following morning, drugs (test compounds or interferon alpha) are diluted in 96 well U bottom plates with media or DMSO/media, depending on the final concentration chosen for screening. Generally for 6 concentrations of each test compounds ranging from 10 micromolar to 0.03 micromolar are applied. 100 μl of the test compound dilution is placed in wells of the 96 well plate containing the HCV replicon cells. Media without drug is added to some wells as a negative controls. DMSO is known to affect cell growth. Therefore, if drugs diluted in DMSO are used, all wells, including negative control (media only) and positive control (interferon alpha) wells, must contain the same concentration of DMSO, for single dose screening. The plates are incubated at 37° C. in a humidified 5% CO2 environment for three days.
On day four, the NTPII assay is quantitated. The medium is poured from the plates and the plates are washed once in 200 μl of PBS. The PBS is then decanted and the plates tapped in a paper towel to remove any remaining PBS. Cells are fixed in situ with 100 id/well of pre-cooled (−20° C.) methanol:acetone (1:1) and the plates are placed at −20° C. for 30 minutes.
The fixing solution is poured from the plates and the plates allowed to air-dry completely (approximately one hour). The appearance of the dried cell layer is recorded and the density of the cells in the toxic wells is scored with the naked eye. […]

SMILES	EC50 (Hepatitis C virus, 72 h) [µM]	EC50 [µM]
CCCC(NC(=O)C1C2CCCC2CN1C(=O)C(C)N1CCCCC1)C(=O)C(=O)NC1CC1 (centres unmarked) [Compound 35, N-(1-(cyclopropylamino)-1,2-dioxohexan-3-yl)-2-(2-(piperidin-1-yl)propanoyl)octahydrocyclopenta [c]pyrrole-1-carboxamide]	< 100	
CCCC(NC(=O)C1C2CCCC2CN1C(=O)C(c1ccccc1)N1CCCCC1)C(=O)C(=O)NC1CC1 (centres unmarked) [Compound 36, N-(1-(cyclopropylamino)-1,2-dioxohexan-3-yl)-2-(2-phenyl-2-(piperidin-1-yl)acetyl)octahydrocyclopenta[c] pyrrole-1-carboxamide]	< 100	
CCCC(NC(=O)C1C2CCCC2CN1C(=O)C(C)N1CCCCCC1)C(=O)C(=O)NC1CC1 (centres unmarked) [Compound 37, 2-(2-(azepan-1-yl)propanoyl)-N-(1-(cyclopropylamino)-1,2-dioxohexan-3-yl)octahydrocyclopenta[c]pyrrole-1-carboxamide]	< 100	
CCCC(NC(=O)C1C2CCCC2CN1C(=O)[C@@H](NC(=O)OC(C)(C)C)C(C)(C)C)C(=O)C(=O)NC1CC1 (stereo partly drawn) [Compound 39, tert-butyl(2S)-1-(1-(1-(cyclopropylamino)-1,2-dioxohexan-3-ylcarbamoyl)hexahydrocyclopenta[c]pyrrol-2(1H)-yl)-3,3-dimethyl-1-oxobutan-2-ylcarbamate]	< 100	
CCCC(NC(=O)C1C2CCCC2CN1C(=O)C(C)N1CCCC1)C(=O)C(=O)NC1CC1 (centres unmarked) [Compound 40, N-(1-(cyclopropylamino)-1,2-dioxohexan-3-yl)-2-(2-(pyrrolidin-1-yl)propanoyl)octahydrocyclopenta [c]pyrrole-1-carboxamide]	< 100	
CCCC(NC(=O)C1C2CCCC2CN1C(=O)[C@@H](C)N1CCCCC1)C(=O)C(=O)NC1CC1 (stereo partly drawn) [Compound 42, N-(1-(cyclopropylamino)-1,2-dioxohexan-3-yl)-2-((R)-2-(piperidin-1-yl)propanoyl)octahydrocyclopenta [c]pyrrole-1-carboxamide]	> 100	
CCCC(NC(=O)C1C2CCCC2CN1C(=O)[C@@H](C)N1CCCC1)C(=O)C(=O)NC1CC1 (stereo partly drawn) [Compound 43, N-(1-(cyclopropylamino)-1,2-dioxohexan-3-yl)-2-((R)-2-(pyrrolidin-1-yl)propanoyl)octahydrocyclopenta [c]pyrrole-1-carboxamide]	> 100	
CCCC(NC(=O)[C@@H]1C[C@@H](OC(=O)N2CCc3ccccc3C2)CN1C(=O)C(C)N1CCCCC1)C(=O)C(=O)NC1CC1 (stereo partly drawn) [Compound 44, (3R,5S)-5-(1-(cyclopropylamino)-1,2-dioxohexan-3-ylcarbamoyl)-1-(2-(piperidin-1-yl)propanoyl)pyrrolidin-3-yl 3,4-dihydroisoquinoline-2(1H)-carboxylate]	< 100	
CCCC(NC(=O)C1C[C@@H](OC(=O)N2CCc3ccccc3C2)CN1C(=O)C(C)N1CCCC1)C(=O)C(=O)NC1CC1 (stereo partly drawn) [Compound 45, (3R,5S)-S-(1-(cyclopropylamino)-1,2-dioxohexan-3-ylcarbamoyl)-1-(2-(pyrrolidin-l-yl)propanoyl)pyrrolidin-3-yl 3,4-dihydroisoquinoline-2(1H)-carboxylate]	> 100	
CCCC(NC(=O)C1C2CCCC2CN1C(=O)[C@H](C)N1CCCCC1)C(=O)C(=O)NC1CC1 (stereo partly drawn) [Compound 46, N-(1-(cyclopropylamino)-1,2-dioxohexan-3-yl)-2-((S)-2-(piperidin-1-yl)propanoyl)octahydrocyclopenta [c]pyrrole-1-carboxamide]	< 100	
CCCC(NC(=O)C1C2CCCC2CN1C(=O)[C@@H](N1CCCCC1)C(C)(C)C)C(=O)C(=O)NC1CC1 (stereo partly drawn) [Compound 47, N-(1-(cyclopropylamino)-1,2-dioxohexan-3-yl)-2-((S)-3,3-dimethyl-2-(piperidin-1-yl)butanoyl)octahydrocyclopenta [c]pyrrole-1-carboxamide]	< 100	
CCCC(NC(=O)C1C2CCCC2CN1C(=O)[C@@H](N1CCCCC1)C(C)(C)C)C(=O)C(=O)NC1CC1 (stereo partly drawn) [Compound 48, N-(1-(cyclopropylamino)-1,2-dioxohexan-3-yl)-2-((S)-3,3-dimethyl-2-(piperidin-1-yl)butanoyl)octahydrocyclopenta [c]pyrrole-1-carboxamide]		< 100
CCCC(NC(=O)C1C2CCCC2CN1C(=O)[C@H](C(C)C)N1CCCCC1)C(=O)C(=O)NC1CC1 (stereo partly drawn) [Compound 49, N-(1-(cyclopropylamino)-1,2-dioxohexan-3-yl)-2-((S)-3-mcthyl-2-(piperidin-1 - yl)bulanoyl)octahydrocyclopenta [c]pyrrole-1-carboxamide]	< 100	
C=CC1CC1(NC(=O)[C@@H]1C[C@@H](Oc2cc(-c3ccccc3)nc3cc(OC)ccc23)CN1C(=O)[C@@H](N1CCCCC1)C(C)(C)C)C(=O)OCC (stereo partly drawn) [Compound 50, ethyl 1-((2S,4R)-1-((S)-3,3-dimethyl-2-(piperidin-1-yl)butanoyl)-4-(7-methoxy-2-phenylquinolin-4-yloxy)pyrrolidine-2-carboxamido)-2-vinylcyclopropanecarboxylate]	< 100	
C=CC1CC1(NC(=O)[C@@H]1C[C@@H](Oc2cc(-c3ccccc3)nc3cc(OC)ccc23)CN1C(=O)[C@H](c1ccccc1)N1CCCCC1)C(=O)OCC (stereo partly drawn) [Compound 51, ethyl 1-((2S,4R)-4-(7-methoxy-2-phenylquinolin-4-yloxy)-1-((S)-2-phenyl-2-(piperidin-1-yl)acetyl)pyrrolidine-2-carboxamido)-2-vinylcyclopropanecarboxylate]	< 100	
C=CC1CC1(NC(=O)[C@@H]1C[C@@H](Oc2cc(-c3ccccc3)nc3cc(OC)ccc23)CN1C(=O)[C@H](C(C)C)N1CCCCC1)C(=O)OCC (stereo partly drawn) [Compound 52, ethyl 1-((2S,4R)-4-(7-methoxy-2-phenylquinolin-4-yloxy)-1-((S)-3-methyl-2-(piperidin-1-yl)butanoyl)pyrrolidine-2-carboxamido)-2-vinylcyclopropanecarboxylate]	< 100	
C=CC1CC1(NC(=O)[C@@H]1C[C@@H](Oc2cc(-c3ccccc3)nc3cc(OC)ccc23)CN1C(=O)[C@H](C1CCCCC1)N1CCCCC1)C(=O)OCC (stereo partly drawn) [Compound 53, ethyl 1-((2S,4R)-1-((S)-2-cyclohexyl-2-(piperidin-1-yl)acetyl)-4-(7-methoxy-2-phenylquinolin-4-yloxy)pyrrolidine-2-carboxamido)-2-vinylcyclopropanecarboxylate]	< 100	
C=CC1CC1(NC(=O)[C@@H]1C[C@@H](Oc2cc(-c3ccccc3)nc3cc(OC)ccc23)CN1C(=O)[C@H](C)N1CCCCC1)C(=O)OCC (stereo partly drawn) [Compound 54, ethyl 1-((2S,4R)-4-(7-methoxy-2-phenylquinolin-4-yloxy)-1-((S)-2-(piperidin-1-yl)propanoyl)pyrrolidine-2-carboxamido)-2-vinylcyclopropanecarboxylate]	< 100	
C=CC1CC1(NC(=O)[C@@H]1C[C@@H](Oc2cc(-c3ccccc3)nc3cc(OC)ccc23)CN1C(=O)[C@@H](N1CCCCC1)C(C)(C)C)C(=O)O (stereo partly drawn) [Compound 55, 1-((2S,4R)-1-((S)-3,3-dimethyl-2-(piperidin-1-yl)butanoyl)-4-(7-methoxy-2-phenylquinolin-4-yloxy)pyrrolidine-2-carboxamido)-2-vinylcyclopropanecarboxylic acid]	< 100	
C=CC1CC1(NC(=O)[C@@H]1C[C@@H](Oc2cc(-c3ccccc3)nc3cc(OC)ccc23)CN1C(=O)[C@H](c1ccccc1)N1CCCCC1)C(=O)O (stereo partly drawn) [Compound 56, 1-((2S,4R)-4-(7-methoxy-2-phenylquinolin-4-yloxy)-1-((S)-2-phenyl-2-(piperidin-1-yl)acetyl)pyrrolidine-2-carboxamido)-2-vinylcyclopropanecarboxylic acid]	> 100	
